The values that follow come from PMC6018746, “Activation of the p53-MDM4 regulatory axis defines the anti-tumour response to PRMT5 inhibition through its role in regulating cellular splicing” (Scientific Reports, 2018).

The test system of data set [1] is MDM4 alternative splicing in Z-138 cells. The data set can be described thus: MDM4 splicing RT-PCR. To be noted: 3-day exposure, 1.6 nM to 1 μM tested. The format is cell-based, human. Here is the method:
We confirmed PRMT5 inhibitor-induced alternative splicing of MDM4 from the full-length isoform (MDM4-FL) to the short isoform (MDM4-S) at both treatment concentrations, with the most robust changes after 3 days of compound exposure.
RNA was isolated from cell pellets as described above and was converted to cDNA using ABI High Capacity Reverse Transcription Reagents (4274966) per manufacturer’s instructions and PCR was performed as described elsewhere. Reaction products were separated using agarose ethidium bromide gel electrophoresis and visualized using a Bio-Rad VersaDoc Model 5000 imaging system.

Data set [2] is described as follows: body weight of Z-138 tumour bearing mice. The format is in vivo, mouse. To be noted: any of the treatment groups. The text has this: Supplementary Figure S7. […] Z-138 tumour
Treatments were reinstated on day 32 for 2 weeks followed by a one week holiday.

For data set [3], the system named is p53 mutant MCL xenograft model, REC-1. As to the kind of experiment: REC-1 xenograft efficacy. The format is in vivo, mouse. As to conditions: 100 mg/kg BID. The text has this:
We also observed an increase in the expression of p53 target genes including p21/CDKN1 (Supplementary Figure S7B), confirming induction of p53 activity.

A further data set relates to SDMA in Z-138 tumors. As to the kind of experiment: SDMA in Z-138 tumour xenograft. The format is in vivo, mouse. To be noted: 7 days. On the procedure:
Treatment was re-instated on day 32 for 2 weeks followed by a 1 week holiday. […] QD doses evaluated include 0, 50, 100, and 200 mg/kg. […] Sampling 2 hours post last dose. […] SDMA ELISA was performed on homogenized cells and frozen tumour lysates. Fluorescence intensity generated by addition of Luminata Forte (Millipore #WBKUF0500) substrate was measured on a PerkinElmer Envision plate reader.

The subject of data set [4] is p53 wild-type Z-138 xenograft model. The data set can be described thus: Z-138 xenograft efficacy. Format: in vivo, mouse. As to conditions: 21 days.
Another data set is described as follows: mouse pharmacokinetics. As to conditions: data not shown. The format is in vivo.
For data set [5], the target named is panel containing 20 methyltransferases including PRMT9. As to the kind of experiment: methyltransferase selectivity panel. As to conditions: other methyltransferases including PRMT9, substrates near KM^app. Format: biochemical.
Protocol: (A) Plots indicating the mode of inhibition against
IC50 values are graphed as a function of substrate concentration relative to Kmapp
(top panel, SAM; bottom panel, H4 1-21 peptide). Data points (closed vs. open
circles) represent two independent experiments. (B) IC50 values plotted as a
represent data generated using 0.8 nM PRMT5/MEP50 while closed circles
represent data with 4 nM PRMT5/MEP50 (top panel).
following a 60 minute Enz:SAM:Inh preincubation fit to a 3-parameter dose-
Enz:SAM:Inh preincubation. IC50 values were determined by fitting inhibition
data to a 3-parameter dose-response equation. Ki*app values were calculated
from IC50 values using the Cheng-Prusoff equation for a competitive inhibitor.

Structures are written as SMILES.

On to `O=C(NC[C@H](O)CN1CCc2ccccc2C1)c1ccnc(NC2CCC2)c1` [GSK3203591], for which the “concentration at which MDM4 alternative splicing was evident” value in data set [1] was at least 8 nM.
For `CC(=O)N1CCC(Nc2cc(C(=O)NC[C@H](O)CN3CCc4ccccc4C3)ncn2)CC1` [GSK3326595], the body weight result in data set [2] is “No significant body weight losses”. The molecule also displayed a TGI in data set [3] of 55%. The SDMA % vehicle in the data set on SDMA in Z-138 tumors (0.5 mg/kg BID) was 71%; with SDMA in Z-138 tumors (1.4 mg/kg BID), 47%; in the data set on SDMA in Z-138 tumors (4.2 mg/kg BID), 28%; in the data set on SDMA in Z-138 tumors (12.5 mg/kg BID) it was 9%; with SDMA in Z-138 tumors (25 mg/kg BID), 5%; in the data set on SDMA in Z-138 tumors (50 mg/kg BID), 8%. Moreover, the SDMA % vehicle in the data set on SDMA in Z-138 tumors (50 mg/kg QD) is recorded as 16%; in the data set on SDMA in Z-138 tumors (100 mg/kg BID) it was 2%; in the data set on SDMA in Z-138 tumors (100 mg/kg QD), 12%; with SDMA in Z-138 tumors (200 mg/kg QD) it was 9%. Besides, the “tumour growth inhibition (TGI)” value in data set [4] (25 mg/kg BID oral) came out at 52.1%; in data set [4] (50 mg/kg BID oral), 88.03%; in data set [4] (100 mg/kg BID oral), 106.05%. This molecule also registered an elimination half-life in “mouse pharmacokinetics” of 1.8 h. Also, in data set [5], the IC50 is over 40 µM.

The term TGI denotes how far tumour growth fell short of that in controls. Low readings indicate little slowing of growth, high ones much slowing of growth. As usually defined, the IC50 is the concentration that gives 50% inhibition. The low end stands for higher potency, the high end for lower potency.
